Measurements as given in publication PMC10029155, “Harnessing protein sensing ability of electrochemical biosensors via a controlled peptide receptor–electrode interface” (Journal of Nanobiotechnology, 2023).

Tests used:
[1] = molecular target: T1, cathepsin B (Homo sapiens, UniProt P07858); assay: SWV electrochemical binding to cathepsin B (relative current change, binding constant); conditions: for relative binding affinity to cathepsin B (specificity): 125 nM protein, peptide 50 μM or phage ~10^12 PFU/mL immobilized
T1 construct: Cathepsin B proteins, purified from human liver (~ 27.5 kDa, > 95% purity); purchased ENZO (NY, USA); host or cells: purified from human liver
Experimental: A conventional three-electrode system including an Au working electrode (diameter: 5 mm, surface area: 19.6 mm^2), a Pt counter electrode, and an Ag/AgCl reference electrode, was used for the electrochemical measurements. The EIS, CV, and SWV measurements were conducted in the presence of 2.5 mM ferro/ferricyanide in 1 M KNO3 using a CHI 660E instrument (CH Instruments, Austin, TX, USA) at 25 °C. The EIS measurements were carried out by applying a 10 mV signal with a frequency ranging from 0.01 Hz to 100 kHz. The CV tests were performed between − 0.6 and 0.6 V (scan range) at a scan rate of 100 mVs^−1. The SWV tests were carried out in the potential range of − 0.4 to 0.6 V with an amplitude of 5 mV, frequency of 10 Hz, and a scan interval of 4 mV. The relative current change (ΔI%) was obtained by considering that the peak current decreased after the immobilization of the peptides and/or phages and cathepsin B protein interaction using the following equation:1 ΔI%=I0-I/I0×100 where I0 refers to phage-on-a-sensor, peptide-on-a-sensor, or peptide-on-a-AuNPs/MXene sensor and/or peptide oxidation current before cathepsin B introduction, and I refers to Au-protein oxidation current after cathepsin B introduction.

[2] = system: cathepsin L1 (CTSL1); assay: SWV specificity test against CTSL1; format: binding; conditions: 125 nM protein
Experimental: (§1) A conventional three-electrode system including an Au working electrode (diameter: 5 mm, surface area: 19.6 mm^2), a Pt counter electrode, and an Ag/AgCl reference electrode, was used for the electrochemical measurements. The EIS, CV, and SWV measurements were conducted in the presence of 2.5 mM ferro/ferricyanide in 1 M KNO3 using a CHI 660E instrument (CH Instruments, Austin, TX, USA) at 25 °C. The EIS measurements were carried out by applying a 10 mV signal with a frequency ranging from 0.01 Hz to 100 kHz. The CV tests were performed between − 0.6 and 0.6 V (scan range) at a scan rate of 100 mVs^−1. […]
(§2) The electrochemical response of the phage sensor for cathepsin B detection was evaluated by the specificity analysis of the developed phage. […] The relative binding affinity of the phage-on-a-sensor with different phage concentrations was measured. […] The binding constants of the developed phage sensor and the relative current change (ΔI%) with different cathepsin B concentrations were measured by SWV.
(§3) To select potential high-affinity peptides from the phage clones, the five synthetic peptides were immobilized on the Au electrode via streptavidin–biotin and MUA-EDC/NHS coupling methods. Each preparation step of the peptide sensor was recorded using CV, EIS, and SWV (Additional file 1: Fig. S3a–c), and the relative binding affinities for cathepsin B were measured by SWV. […]

[3] = system: BSA; assay: SWV specificity test against BSA (control); format: binding; conditions: 125 nM protein, negative control protein
Experimental: as §1, §2, §3

[4] = system: cathepsin S (CTSS); assay: SWV specificity test against CTSS; format: binding; conditions: 125 nM protein
Experimental: as §1, §2, §3

[5] = molecular target: T1, cathepsin B; assay: ELISA binding of peptide-displaying phage clones to immobilized biotinylated cathepsin B; conditions: 405 nm
Experimental: A 96 well streptavidin-coated microplate was washed three times with PBS, and the biotinylated cathepsin B was immobilized on it with mild shaking at 25 °C for 1 h. The unbound proteins were removed and blocked with a blocking buffer (5% BSA in NaHCO3) at 25 °C for 1 h. The wells were washed six times with 0.1% PBST, and 100 µL of the amplified phages (10^11 PFU/mL), i.e., the capture receptors, were added and incubated for 1 h at 25 °C. After washing six times with PBST again, the HRP-conjugated anti-M13 monoclonal antibodies (1:5000 dilution with blocking buffer), i.e., the detecting antibodies, were added and incubated at 25 °C for 1 h. The residual solution was discarded, and the microplate was washed again with the same buffer. Freshly prepared HRP substrate (ABTS) was added, and the absorbance was measured at 405 nm using a Multiskan FC microplate photometer (Thermo Scientific, Waltham, MA, USA).
The binding affinities of the selected phage clones for the immobilized cathepsin B were tested by ELISA. For these experiments, 250 nM of cathepsin B or the same amount of BSA as a negative control was immobilized on a well, followed by 10^11 PFU/mL of phage addition. The relative binding affinity of each phage was detected using HRP-conjugated M13 antibodies. […] The CTSB 4-1 clone was the only phage with a high binding affinity to cathepsin B, motivating further characterization of its binding interaction to confirm its specific binding to cathepsin B with increasing cathepsin B concentration (Fig. 2c).

| Sequence | relative binding affinity to cathepsin B (specificity) [1] | relative binding affinity to CTSL1 (specificity) [2] | relative binding affinity to BSA (specificity) [3] | relative binding affinity to CTSS (specificity) [4] | relative binding affinity for cathepsin B (ELISA) ([5]; 250 nM cathepsin B immobilized, 10^11 PFU/mL phage, HRP-conjugated anti-M13 antibody, ABTS, 25 °C, 1 h, triplicate) | dose response of binding with cathepsin B concentration ([5]; cathepsin B 3.906 to 250 nM, ELISA) | SC50 ([5]; cathepsin B 6.25 to 250 nM, ELISA, printed in picture Fig. 2c) | relative binding affinity for all the tested proteins, comparison between peptides ([1]; 125 nM cathepsin B, CTSS, CTSL1 or BSA, peptide 50 μM) |
| --- | --- | --- | --- | --- | --- | --- | --- | --- |
| HRHRRHRHRKHHK - biotin [CTSB BP4] | much lower binding affinity for cathepsin B than for CTSB BP3 | non-specific binding affinity | non-specific binding affinity | non-specific binding affinity |  |  |  |  |
| WDMWPSMDWKAE [CTSB 4-1, M13 phage clone displaying …, identified in four rounds of the biopanning] |  |  |  |  | strong cathepsin B binding | dose-dependent binding affinity with increasing cathepsin B concentration | 44.27 nM |  |
| WDMWPSMDWKAEK - biotin [CTSB BP1] | did not bind to cathepsin B |  |  |  |  |  |  | comparable to those of CTSB BP2 and CTSB BP5 |
